In US6683079B2, “3-(amino-or aminoalkyl) pyridinone derivatives and their use for the treatment of HIV related diseases” (Centre National de la Recherche Scientifique, priority 1998, dated 2004):

These compounds were tested on HIV-1 strain IIIB (assay: Retrovirucidal effect on HIV-1 strain IIIB (Table 3)). Settings: not given.
Type: cell-based
Experimental: (§1) HIV-1 viral suspensions were obtained by coculture of MT4 cells and H9 cells chronically infected by HIV-ILai isolate. 200 μl of a cell supernatant containing viral particles (HIV-ILai: 100 TCID50) were incubated at room temperature with various concentrations of different inhibitors. After 3 hours, virions were washed through 0.02 μm anopore membrane in 1.5 mL Vectaspin tube (Whatman) for 10 minutes at 5 000 g. Each of the three subsequent washes was performed in the same conditions after the viral concentrate was refilled with 500 μL of RPMI medium. Then, the viral concentrate was readjusted to the initial volume with RPMI plus 10% foetal calf serum (FCS). The residual infectivity was assayed on P4 cells as described by CHARNEAU et al. (1994, J. Mol. Biol., 241, 651-662). Briefly, P4 cells were plated using 100 μL of DMEM medium plus 10% FCS in 96 plate multi-wells at 20×10^5 cells per mL. After overnight incubation at 37° C., the supernatant was discarded and the viral preparation (200 μL) was added. One day later the wells were washed three times in PBS. Each well was refilled with 200 μL of a reaction buffer containing 50 mM Tris-HCl pH 8.5, 100 mM 2-mercaptoethanol, 0.05% Triton X-100 and 5 mM 4-methylumbelliferyl β-D-galactopyranoside (MUG). After 3 hours at 37° C., the level of the reaction was measured in a fluorescence microplate reader.
(§2) The retrovirucidal effect of each pyridinone derivative listed in table 3 has been assayed according to the teachings of example 2, excepted that the anti-viral effect has been tested on the two following HIV-1 strains:
a) HIV-1 strain IIIB (see example 2);

SMILES | HIV1 pIC50 (pIC50=−log IC50)
CCc1c(C)[nH]c(=O)c(N)c1Sc1cc(C)cc(C)c1 [Compound 1] | 7,6999

Same assay, conditions: pIC50=-log IC50, IC50 in M

SMILES | HIV1 pIC50 strain IIIB
CCc1c(C)[nH]c(=O)c(N)c1Sc1cc(C)cc(C)c1 [Compound 1] | 7.699
CCc1c(C)[nH]c(=O)c(N)c1C(=O)c1cc(C)cc(C)c1 [Compound 2] | 6.612
CCc1c(C)[nH]c(=O)c(N(C)C)c1Cc1ccc(Cl)cc1 [Compound 55] | 6.651
CCc1c(C)[nH]c(=O)c(N(C)C)c1Cc1nccn1C [Compound 88] | <4
CCCCc1cc(Cc2cc(C)cc(C)c2)c(N)c(=O)[nH]1 [Compound 89] | 6.237
CCCCc1cc(Cc2cc(C)cc(C)c2)c(N(C)C)c(=O)[nH]1 [Compound 90] | 6.359
Cc1cccc(Cc2c3c([nH]c(=O)c2N)CCCC3)c1 [Compound 91] | 5.73
Cc1cccc(Cc2c3c([nH]c(=O)c2N(C)C)CCCC3)c1 [Compound 92] | 7.807
CCc1c(C)[nH]c(=O)c(N(C)C)c1C(=O)c1cccc(C)c1 [Compound 93] | 8.721
Cc1cccc(C(=O)c2c(C)c(C)[nH]c(=O)c2N)c1 [Compound 94] | 5.153
CCc1c(C)[nH]c(=O)c(N(CC)CC)c1C(=O)c1cccc(C)c1 [Compound 95] | 8.268
CCCc1cccc(Cc2c(CC)c(C)[nH]c(=O)c2N)c1 [Compound 103] | 5.747
Cc1cc(C)cc(Cc2c(Cl)c[nH]c(=O)c2N)c1 [Compound 105] | 4.943
Cc1cc(C)cc(Cc2c(Cl)c[nH]c(=O)c2N(C)C)c1 [Compound 106] | 7.063
CCc1[nH]c(=O)c(N(C)C)c(C(=O)c2cccc(C)c2)c1C [Compound 108] | 7.005
CCc1c(C)[nH]c(=O)c(N(C)C)c1Cc1cccc(CO)c1 [Compound 110] | 7.783
CCc1c(C)[nH]c(=O)c(N)c1C(=O)c1ccc2c(c1)OCCO2 [Compound 111] | <4
CCc1c(C)[nH]c(=O)c(N(C)C)c1C(=O)c1ccc2c(c1)OCCO2 [Compound 112] | 6.394
CCc1c(C)[nH]c(=O)c(N)c1Cc1cccc2ccccc12 [Compound 113] | 5.273
CCc1c(C)[nH]c(=O)c(N(C)C)c1Cc1cccc2ccccc12 [Compound 116] | 6.627

SMILES | HIV1 pIC50 strain IIIB
Cc1cc(C)cc(Cc2c(C)c(C(C)C)[nH]c(=O)c2N)c1 [Compound 118] | 4.042
Cc1cc(C)cc(Cc2c(C)c(C(C)C)[nH]c(=O)c2N(C)C)c1 [Compound 119] | 6.114
CCc1c(C)[nH]c(=O)c(N)c1Cc1cccc(OC)c1 [Compound 120] | 5.033
CCc1c(C)[nH]c(=O)c(N(C)C)c1Cc1cccc(O)c1 [Compound 122] | 7.196
CCc1c(C)[nH]c(=O)c(N)c1C(=O)Cc1cccc(C)c1 [Compound 124] | 4.389
CCc1c(C)[nH]c(=O)c(N(C)C)c1C(=O)Cc1cccc(C)c1 [Compound 127] | 4.174
CCc1c(C)[nH]c(=O)c(N(C)C)c1C(=O)c1cccc(CO)c1 [Compound 128] | 7.848
Cc1cccc(Cc2c3c([nH]c(=O)c2N)CCC3)c1 [Compound 131] | 5.799
Cc1cccc(Cc2c3c([nH]c(=O)c2N(C)C)CCC3)c1 [Compound 132] | 7.863
CCc1c(C)[nH]c(=O)c(N(C)C)c1CN(C)c1cc(C)cc(C)c1 [Compound 133] | 4.94
CCc1c(C)[nH]c(=O)c(N)c1Cc1ccc2c(c1)OCCO2 [Compound 134] | 4.056
CCc1c(C)[nH]c(=O)c(N(C)C)c1Cc1ccc2c(c1)OCCO2 [Compound 135] | 6.688
CCc1c(C)[nH]c(=S)c(N(C)C)c1Cc1cc(C)cc(C)c1 [Compound 137] | 7.658
CCc1c(C)[nH]c(=O)c(NC)c1Cc1cccc(C(F)(F)F)c1 [Compound 139] | 6.908
CCc1c(C)[nH]c(=O)c(N)c1C(=O)c1cccc(C(F)(F)F)c1 [Compound 140] | 5.766
CCc1c(C)[nH]c(=O)c(N)c1Cc1ccc2c(c1)OCO2 [Compound 141] | 4.642
Cc1cccc(C(=O)c2c3c([nH]c(=O)c2N)CCC3)c1 [Compound 142] | 4.889
CCc1c(C)[nH]c(=O)c(N(C)C)c1C(=O)c1cccc(COc2ccccc2)c1 [Compound 143] | 7.421
CCc1c(C)[nH]c(=O)c(N(C)CCOCc2ccccc2)c1Cc1cccc(C)c1 [Compound 144] | 6.446
CCc1c(C)[nH]c(=O)c(N(C)C)c1Cc1ccc2c(c1)OCO2 [Compound 147] | 7.721

SMILES | HIV1 pIC50 strain IIIB
Cc1cccc(C(=O)c2c3c([nH]c(=O)c2N(C)C)CCC3)c1 [Compound 148] | 7.863
CCc1c(C)[nH]c(=O)c(N)c1C(=O)c1ccc2c(c1)OCO2 [Compound 150] | 4.881
CCc1c(C)[nH]c(=O)c(N(C)C)c1C(=O)c1ccc2c(c1)OCO2 [Compound 151] | 7.845
CCc1c(Cc2cc(C)cc(C)c2)c(N(C)C)c(=O)n(-c2ccccc2)c1C [Compound 152] | 4.21
CCc1c(Cc2cc(C)cc(C)c2)c(N(C)C)c(=O)n(N)c1C [Compound 153] | 6.749
CCc1c(C)[nH]c(=O)c(N(C)CCC(C)C)c1Cc1cccc(C)c1 [Compound 155] | 7.514
CCc1c(C)[nH]c(=O)c(N)c1Cc1ccc(OC)c(C)c1 [Compound 156] | 4.934
CCc1c(C)[nH]c(=O)c(N(C)C)c1Cc1ccc(OC)c(C)c1 [Compound 157] | 6.413
CCc1c(C)[nH]c(=O)c(N)c1Sc1cccc(C)c1 [Compound 159] | 7.011
CCc1c(C)[nH]c(=O)c(N(CCOC)CCOC)c1Cc1cccc(C)c1 [Compound 180] | 5.988
CCOc1cccc(Cc2c(CC)c(C)[nH]c(=O)c2N(C)C)c1 [Compound 181] | 7.928
CCc1c(C)[nH]c(=O)c(N)c1C(=O)c1cc(F)cc(C(F)(F)F)c1 [Compound 182] | 5.933
CCc1c(C)[nH]c(=O)c(N(C)C)c1C(=O)c1cc(F)cc(C(F)(F)F)c1 [Compound 183] | 8.481
CCc1c(C)[nH]c(=O)c(N)c1C(=O)c1cc(Br)cs1 [Compound 186] | 5.781
CCc1c(C)[nH]c(=O)c(N)c1Sc1cccc(Br)c1 [Compound 188] | 7.063
CCc1c(C)[nH]c(=O)c(N)c1Cc1cc(Cl)cc(Cl)c1 [Compound 189] | 6.401
CCc1c(C)[nH]c(=O)c(N)c1C(=O)c1cc(Cl)cc(Cl)c1 [Compound 190] | 7.757
CCc1c(C)[nH]c(=O)c(N)c1C(=O)c1ccc(Br)s1 [Compound 194] | 4.665
CCc1c(C)[nH]c(=O)c(N(C)C)c1C(=O)c1cccc(-c2ccccc2)c1 [Compound 196] | 6.411

Same assay, conditions: retrovirucidal effect, pIC50=-log IC50 (M)

SMILES | HIV1 pIC50 strain IIIB
CCc1c(C)[nH]c(=O)c(N)c1Oc1cc(C)cc(C)c1 [Compound 197] | 7.307
Cc1c[nH]c(=O)c(N)c1SCc1ccccc1 [Compound 198] | 4.457
CCc1c(C)[nH]c(=O)c(N)c1Cc1ccccc1Br [Compound 202] | 5.715
CCc1c(C)[nH]c(=O)c(N(C)C)c1Cc1ccccc1Br [Compound 203] | 8.161

The compounds below were run on HIV-1 strain 103 N (assay: Retrovirucidal effect on HIV-1 strain 103 N (Table 3)). Settings: HIV-1 strain 103N (RT Lys-103 to Asn mutant); pIC50=-log IC50, IC50 in M.
Type: cell-based
Experimental: as §1, §2
b) HIV-1 strain 103 N which is a mutant strain bearing a point mutation in the reverse transcriptase gene leading to an enzyme wherein the initial Lys-103 residue is replaced for a Asn residue.
The HIV-1 103 N strain has also been described by SAHLBERG et al.,(1998, Antiviral Res., 37 (3): ASS) and BALZARiNI et al. (1996, Antimicrobial Agents and Chemotherapy, 40 (6): 1454-1466).

SMILES | HIV1 pIC50 strain 103N
CCc1c(C)[nH]c(=O)c(N)c1Sc1cc(C)cc(C)c1 [Compound 1] | 6.671
CCc1c(C)[nH]c(=O)c(N)c1C(=O)c1cc(C)cc(C)c1 [Compound 2] | 6.64
